Values quoted from earlier work, collected in publication PMC9880028 (Drug Design, Development and Therapy, 2023).

Tested on: WNK1
Conditions: read-out: IC50 (WNK1); only WNK1 inhibitor published when the screen was conducted; ref US Patent application US 2008/0286809 A1, Dario Alessi

IC50: 200 µM
SMILES: Cc1cc(O)c2c(=O)c3c(O)cc(O)c4c5c(O)cc(O)c6c(=O)c7c(O)cc(C)c8c1c2c(c34)c(c78)c65 [hypericin]
